ChEMBL document CHEMBL5346899, “PKM2/PDK1 dual-targeted shikonin derivatives restore the sensitivity of EGFR-mutated NSCLC cells to gefitinib by remodeling glucose metabolism” (Eur J Med Chem, 2023)
The source made the active and inactive calls. The calls are words filed in the database; no cut-off is given here.

Columns and labels:
NCI-H1299 [1] = test: Synergistic antiproliferative activity against human NCI-H1299 cells assessed as cell growth inhibition at 500 micromol/L incubated for 24 hrs in presence of AZD7545 by CCK-8 analysis; assay type: functional, cell-based; conditions: dose 500.0 µmol/L
NCI-H1299 [2] = test: Induction of apoptosis in human NCI-H1299 cells assessed as live cells at 500 micromol/L incubated for 24 hrs by Annexin V-FITC/PI staining based analysis (reference value: 96.6%); assay type: functional; conditions: dose 500 µmol/L, at 500 µM
NCI-H1299 [3] = test: Induction of apoptosis in human NCI-H1299 cells assessed as early apoptotic cells at 500 micromol/L incubated for 24 hrs by Annexin V-FITC/PI staining based analysis (reference value: 0.772%); assay type: functional; conditions: dose 500 µmol/L, at 500 µM
NCI-H1299 [4] = test: Induction of apoptosis in human NCI-H1299 cells assessed as late apoptotic cells at 500 micromol/L incubated for 24 hrs by Annexin V-FITC/PI staining based analysis (reference value: 2.63%); assay type: functional; conditions: dose 500 µmol/L, at 500 µM
NCI-H1299 [5] = test: Induction of apoptosis in human NCI-H1299 cells assessed as dead cells at 500 micromol/L incubated for 24 hrs by Annexin V-FITC/PI staining based analysis (reference value: 0.021%); assay type: functional; conditions: dose 500 µmol/L, at 500 µM
NCI-H1299 [6] = test: Induction of apoptosis in human NCI-H1299 cells assessed as live cells at 500 micromol/L incubated for 24 hrs in presence of AZD7545 by Annexin V-FITC/PI staining based analysis (reference value: 96.6%); assay type: functional; conditions: dose 500 µmol/L, at 500 µM
NCI-H1299 [7] = test: Induction of apoptosis in human NCI-H1299 cells assessed as early apoptotic cells at 500 micromol/L incubated for 24 hrs in presence of AZD7545 by Annexin V-FITC/PI staining based analysis (reference value: 0.772%); assay type: functional; conditions: dose 500 µmol/L, at 500 µM
NCI-H1299 [8] = test: Induction of apoptosis in human NCI-H1299 cells assessed as late apoptotic cells at 500 micromol/L incubated for 24 hrs in presence of AZD7545 by Annexin V-FITC/PI staining based analysis (reference value: 2.63%); assay type: functional; conditions: dose 500 µmol/L, at 500 µM
NCI-H1299 [9] = test: Induction of apoptosis in human NCI-H1299 cells assessed as dead cells at 500 micromol/L incubated for 24 hrs in presence of AZD7545 by Annexin V-FITC/PI staining based analysis (reference value: 0.021%); assay type: functional; conditions: dose 500 µmol/L, at 500 µM
NCI-H1299 [10] = test: Inhibition of glycolysis in human NCI-H1299 cells assessed as reduction in glucose consumption incubated for 24 hrs in presence of AZD7545 by colorimetric assay; assay type: functional, cell-based
NCI-H1299 [11] = test: Inhibition of glycolysis in human NCI-H1299 cells assessed as reduction in lactate production incubated for 1 hrs in presence of AZD7545 by colorimetric assay; assay type: functional, cell-based
NCI-H1299 [12] = test: Synergistic inhibition of NADPH production in human NCI-H1299 cells incubated for 2 hrs in presence of AZD7545 by NADP+/NADPH assay; assay type: functional, cell-based
NCI-H1299 [13] = test: Synergistic induction of oxidative phosphorylation in human NCI-H1299 cells assessed as increase in ATP production in presence of AZD7545 by luminescence based assay; assay type: functional, cell-based
NCI-H1299 [14] = test: Antitumor activity against human NCI-H1299 cells xenografted in mouse assessed as pathological damage to tumor tissue administered in presence of AZD7545; assay type: functional

With `Cn1c2cc([S+](C)[O-])sc2c2cnn(Cc3cccc(N)c3)c(=O)c21` (centres undefined) the Activity (NCI-H1299 [1]) was “Active”, the Activity (NCI-H1299 [2]) was 97% and the Activity (NCI-H1299 [3]) was 0.923%. The Activity (NCI-H1299 [4]) was 2.11%, the Activity (NCI-H1299 [5]) was 0% and the Activity (NCI-H1299 [6]) was 20.6%. It also gave an Activity (NCI-H1299 [7]) of 7.63%, an Activity (NCI-H1299 [8]) of 71.7% and an Activity (NCI-H1299 [9]) of 0%. For the same compound, the inhibition (NCI-H1299 [10]) was “Active”, the inhibition (NCI-H1299 [11]) was “Active” and the inhibition (NCI-H1299 [12]) was “Active”. The Activity (NCI-H1299 [13]) was “Active” and the Activity (NCI-H1299 [14]) was “Active”.
